# Measured values reported in ChEMBL document CHEMBL5465560, “Selectivity Literature for EUbOPEN Chemogenomic Library” (2024).
# Columns and labels:
# [1] = target: Serine/threonine-protein kinase 32A (Homo sapiens) (UniProt Q8WU08); assay: Selectivity interaction (KinomeScan (DiscoverX)) EUB0000595a STK32A; conditions: at 10 µM
# [2] = target: T1, N-lysine methyltransferase KMT5A (Homo sapiens) (UniProt Q9NQR1); conditions: at 10 µM
# T1 sequence (whole entry): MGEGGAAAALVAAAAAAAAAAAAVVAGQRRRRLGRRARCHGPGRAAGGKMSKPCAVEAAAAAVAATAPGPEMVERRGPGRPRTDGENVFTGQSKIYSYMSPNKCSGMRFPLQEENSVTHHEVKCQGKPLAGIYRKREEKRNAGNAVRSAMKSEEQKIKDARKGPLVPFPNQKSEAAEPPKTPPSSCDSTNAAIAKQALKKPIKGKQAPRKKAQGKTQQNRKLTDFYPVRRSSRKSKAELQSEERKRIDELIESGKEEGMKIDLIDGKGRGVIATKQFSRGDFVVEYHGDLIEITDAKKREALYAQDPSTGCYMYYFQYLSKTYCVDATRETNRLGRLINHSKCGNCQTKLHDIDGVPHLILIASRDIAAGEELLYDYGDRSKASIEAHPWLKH
# [3] = target: Serine/threonine-protein kinase NIM1 (Homo sapiens, UniProt Q8IY84); assay: Selectivity interaction (KinomeScan (DiscoverX)) EUB0000666a NIM1K; conditions: at 10 µM
# Serine/threonine-protein kinase NIM1, sequence (Q8IY84 whole entry): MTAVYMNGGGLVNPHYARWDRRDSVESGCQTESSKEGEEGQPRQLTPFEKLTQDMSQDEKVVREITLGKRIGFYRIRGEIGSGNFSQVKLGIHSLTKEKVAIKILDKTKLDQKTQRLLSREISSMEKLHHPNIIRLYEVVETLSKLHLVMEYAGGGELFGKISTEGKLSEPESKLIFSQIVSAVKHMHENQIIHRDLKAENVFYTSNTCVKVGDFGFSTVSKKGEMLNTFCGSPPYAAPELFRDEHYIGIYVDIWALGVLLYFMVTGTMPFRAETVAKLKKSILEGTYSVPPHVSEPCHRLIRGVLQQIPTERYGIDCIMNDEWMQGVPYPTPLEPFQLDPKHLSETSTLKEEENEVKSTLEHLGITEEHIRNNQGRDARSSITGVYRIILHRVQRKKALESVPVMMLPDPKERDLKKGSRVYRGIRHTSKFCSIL
# [4] = target: 5'-AMP-activated protein kinase catalytic subunit alpha-1 (Homo sapiens, UniProt Q13131); assay: Selectivity interaction (Kinase screening (Upstate/Millipore)) EUB0000604a PRKAA1
# [5] = target: Leukocyte tyrosine kinase receptor (Homo sapiens, UniProt P29376); assay: Selectivity interaction (KinomeScan (DiscoverX)) EUB0001049a LTK; conditions: at 1 µM
# [6] = target: T2, Serine/threonine-protein kinase Nek2 (Homo sapiens) (UniProt P51955); assay: Selectivity interaction (KinomeScan (DiscoverX)) EUB0001049a NEK2; conditions: at 1 µM
# T2 sequence (whole entry): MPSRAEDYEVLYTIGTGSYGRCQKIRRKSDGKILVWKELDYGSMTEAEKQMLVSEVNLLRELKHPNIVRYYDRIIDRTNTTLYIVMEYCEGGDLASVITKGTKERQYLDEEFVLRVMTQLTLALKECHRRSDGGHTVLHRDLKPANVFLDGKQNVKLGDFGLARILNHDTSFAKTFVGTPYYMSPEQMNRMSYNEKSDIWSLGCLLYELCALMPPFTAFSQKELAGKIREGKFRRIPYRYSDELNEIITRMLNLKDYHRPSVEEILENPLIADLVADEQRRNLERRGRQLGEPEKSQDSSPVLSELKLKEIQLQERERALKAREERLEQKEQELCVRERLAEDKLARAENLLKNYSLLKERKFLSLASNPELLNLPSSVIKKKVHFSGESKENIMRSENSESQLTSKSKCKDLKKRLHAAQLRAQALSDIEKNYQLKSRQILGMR
# [7] = Selectivity interaction (Rat whole blood B cell activation assay) EUB0000877a PIK3CD; format: tissue-based
# [8] = tested on: Epidermal growth factor receptor (Homo sapiens), P00533 [UNDEFINED MUTATION]; assay: Selectivity interaction (ProQinase) EUB0000171b EGFR; conditions: at 5 µM
# [9] = target: Serine/threonine-protein kinase N3 (Homo sapiens) (UniProt Q6P5Z2); assay: Selectivity interaction (ProQinase) EUB0000171b PKN3
# Serine/threonine-protein kinase N3 (Homo sapiens), sequence (Q6P5Z2 whole entry, looked up): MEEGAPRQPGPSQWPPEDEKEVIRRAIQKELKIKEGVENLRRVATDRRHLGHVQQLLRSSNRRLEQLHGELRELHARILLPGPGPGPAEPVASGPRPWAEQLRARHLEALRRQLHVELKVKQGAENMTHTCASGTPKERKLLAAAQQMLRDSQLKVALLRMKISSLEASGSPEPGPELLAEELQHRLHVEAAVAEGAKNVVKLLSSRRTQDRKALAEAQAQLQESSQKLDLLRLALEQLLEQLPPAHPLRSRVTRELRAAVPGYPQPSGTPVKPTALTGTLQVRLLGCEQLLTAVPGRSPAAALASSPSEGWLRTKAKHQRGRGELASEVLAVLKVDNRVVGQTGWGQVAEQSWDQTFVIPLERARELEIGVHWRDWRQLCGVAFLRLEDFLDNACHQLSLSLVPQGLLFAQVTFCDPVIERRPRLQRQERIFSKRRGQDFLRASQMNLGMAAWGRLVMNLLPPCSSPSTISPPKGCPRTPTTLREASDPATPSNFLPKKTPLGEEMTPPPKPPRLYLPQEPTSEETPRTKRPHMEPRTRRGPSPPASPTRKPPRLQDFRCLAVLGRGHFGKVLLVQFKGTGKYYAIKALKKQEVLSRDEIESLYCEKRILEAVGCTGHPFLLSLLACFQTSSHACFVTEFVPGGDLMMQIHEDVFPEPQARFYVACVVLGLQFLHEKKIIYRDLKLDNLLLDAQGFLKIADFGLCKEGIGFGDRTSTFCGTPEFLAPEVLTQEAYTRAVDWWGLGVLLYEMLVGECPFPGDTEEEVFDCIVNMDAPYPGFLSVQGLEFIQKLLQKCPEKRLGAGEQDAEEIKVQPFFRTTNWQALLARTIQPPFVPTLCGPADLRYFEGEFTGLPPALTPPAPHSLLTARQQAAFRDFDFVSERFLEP
# [10] = target: Serine/threonine-protein kinase 16 (Homo sapiens, UniProt O75716); assay: Selectivity interaction (ProQinase) EUB0000171b STK16
# Serine/threonine-protein kinase 16, sequence (O75716 whole entry): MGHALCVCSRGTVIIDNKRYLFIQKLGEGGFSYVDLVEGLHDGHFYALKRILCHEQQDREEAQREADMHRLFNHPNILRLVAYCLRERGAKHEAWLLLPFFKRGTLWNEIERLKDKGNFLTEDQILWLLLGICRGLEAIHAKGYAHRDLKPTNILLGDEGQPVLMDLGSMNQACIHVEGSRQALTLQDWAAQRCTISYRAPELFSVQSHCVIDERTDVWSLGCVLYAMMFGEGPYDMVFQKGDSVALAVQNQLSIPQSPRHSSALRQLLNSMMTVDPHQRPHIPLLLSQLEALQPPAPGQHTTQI
# [11] = target: T3, Tyrosine-protein kinase Tec (Homo sapiens) (UniProt P42680); assay: Selectivity interaction (ProQinase) EUB0000171b TEC
# T3 sequence (whole entry): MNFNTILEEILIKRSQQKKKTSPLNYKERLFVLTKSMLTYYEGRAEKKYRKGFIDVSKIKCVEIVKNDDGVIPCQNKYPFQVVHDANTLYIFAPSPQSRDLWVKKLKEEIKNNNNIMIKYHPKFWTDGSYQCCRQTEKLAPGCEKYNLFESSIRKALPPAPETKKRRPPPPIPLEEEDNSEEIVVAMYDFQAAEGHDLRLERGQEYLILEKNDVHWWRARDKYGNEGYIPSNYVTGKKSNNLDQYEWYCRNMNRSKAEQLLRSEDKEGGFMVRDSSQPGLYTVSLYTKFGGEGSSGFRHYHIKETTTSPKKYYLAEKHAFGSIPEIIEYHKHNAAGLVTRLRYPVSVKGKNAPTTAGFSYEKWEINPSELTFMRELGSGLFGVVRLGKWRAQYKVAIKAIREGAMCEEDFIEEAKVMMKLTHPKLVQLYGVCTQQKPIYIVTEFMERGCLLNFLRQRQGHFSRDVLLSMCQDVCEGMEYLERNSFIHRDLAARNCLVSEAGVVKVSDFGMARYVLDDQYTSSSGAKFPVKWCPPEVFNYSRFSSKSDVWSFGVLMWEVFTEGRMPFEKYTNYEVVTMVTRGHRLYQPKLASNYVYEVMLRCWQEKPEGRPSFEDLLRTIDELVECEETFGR
# [12] = target: Vascular endothelial growth factor receptor 2 (Homo sapiens, UniProt P35968); assay: Selectivity interaction (NovaScreen assay) EUB0001542aTs KDR
# Vascular endothelial growth factor receptor 2, sequence (P35968 whole entry): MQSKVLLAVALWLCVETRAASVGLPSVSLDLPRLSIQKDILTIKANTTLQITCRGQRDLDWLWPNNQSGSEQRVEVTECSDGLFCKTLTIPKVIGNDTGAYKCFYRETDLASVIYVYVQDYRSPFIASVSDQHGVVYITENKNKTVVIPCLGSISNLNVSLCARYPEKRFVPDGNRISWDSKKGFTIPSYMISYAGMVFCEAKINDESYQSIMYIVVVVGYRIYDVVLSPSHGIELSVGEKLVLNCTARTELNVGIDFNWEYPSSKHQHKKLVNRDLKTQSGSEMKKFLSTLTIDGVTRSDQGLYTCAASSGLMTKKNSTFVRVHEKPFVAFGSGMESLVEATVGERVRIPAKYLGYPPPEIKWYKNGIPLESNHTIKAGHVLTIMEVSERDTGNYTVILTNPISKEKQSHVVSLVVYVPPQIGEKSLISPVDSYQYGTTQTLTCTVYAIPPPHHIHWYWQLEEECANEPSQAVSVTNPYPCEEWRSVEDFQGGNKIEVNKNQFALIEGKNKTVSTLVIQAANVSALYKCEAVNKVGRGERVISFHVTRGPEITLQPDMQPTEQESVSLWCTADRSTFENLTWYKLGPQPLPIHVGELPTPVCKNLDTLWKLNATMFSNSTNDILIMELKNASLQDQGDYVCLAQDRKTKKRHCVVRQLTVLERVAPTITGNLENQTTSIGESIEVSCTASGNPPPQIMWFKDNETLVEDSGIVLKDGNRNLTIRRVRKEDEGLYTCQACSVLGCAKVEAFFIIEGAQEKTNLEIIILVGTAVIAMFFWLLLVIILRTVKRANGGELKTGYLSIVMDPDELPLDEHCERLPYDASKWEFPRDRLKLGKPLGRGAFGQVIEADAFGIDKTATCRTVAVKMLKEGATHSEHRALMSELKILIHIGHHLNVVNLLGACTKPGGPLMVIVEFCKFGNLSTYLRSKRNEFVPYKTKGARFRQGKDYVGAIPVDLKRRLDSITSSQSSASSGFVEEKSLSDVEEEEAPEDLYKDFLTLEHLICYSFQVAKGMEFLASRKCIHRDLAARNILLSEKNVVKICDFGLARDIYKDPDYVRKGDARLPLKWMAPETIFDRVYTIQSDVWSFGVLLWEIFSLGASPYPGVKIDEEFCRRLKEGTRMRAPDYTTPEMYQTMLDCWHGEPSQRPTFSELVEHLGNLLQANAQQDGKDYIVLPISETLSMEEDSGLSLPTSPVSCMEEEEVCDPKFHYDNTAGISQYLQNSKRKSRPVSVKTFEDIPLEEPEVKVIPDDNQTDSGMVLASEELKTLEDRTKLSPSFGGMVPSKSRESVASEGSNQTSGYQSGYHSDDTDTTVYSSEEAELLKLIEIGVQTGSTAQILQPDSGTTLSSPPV
# [13] = target: Mitogen-activated protein kinase kinase kinase 10 (Homo sapiens) (UniProt Q02779); assay: Selectivity interaction (KinomeScan (DiscoverX)) EUB0001619a MAP3K10; conditions: at 1 µM
# Mitogen-activated protein kinase kinase kinase 10 (Homo sapiens), sequence (Q02779 whole entry, looked up): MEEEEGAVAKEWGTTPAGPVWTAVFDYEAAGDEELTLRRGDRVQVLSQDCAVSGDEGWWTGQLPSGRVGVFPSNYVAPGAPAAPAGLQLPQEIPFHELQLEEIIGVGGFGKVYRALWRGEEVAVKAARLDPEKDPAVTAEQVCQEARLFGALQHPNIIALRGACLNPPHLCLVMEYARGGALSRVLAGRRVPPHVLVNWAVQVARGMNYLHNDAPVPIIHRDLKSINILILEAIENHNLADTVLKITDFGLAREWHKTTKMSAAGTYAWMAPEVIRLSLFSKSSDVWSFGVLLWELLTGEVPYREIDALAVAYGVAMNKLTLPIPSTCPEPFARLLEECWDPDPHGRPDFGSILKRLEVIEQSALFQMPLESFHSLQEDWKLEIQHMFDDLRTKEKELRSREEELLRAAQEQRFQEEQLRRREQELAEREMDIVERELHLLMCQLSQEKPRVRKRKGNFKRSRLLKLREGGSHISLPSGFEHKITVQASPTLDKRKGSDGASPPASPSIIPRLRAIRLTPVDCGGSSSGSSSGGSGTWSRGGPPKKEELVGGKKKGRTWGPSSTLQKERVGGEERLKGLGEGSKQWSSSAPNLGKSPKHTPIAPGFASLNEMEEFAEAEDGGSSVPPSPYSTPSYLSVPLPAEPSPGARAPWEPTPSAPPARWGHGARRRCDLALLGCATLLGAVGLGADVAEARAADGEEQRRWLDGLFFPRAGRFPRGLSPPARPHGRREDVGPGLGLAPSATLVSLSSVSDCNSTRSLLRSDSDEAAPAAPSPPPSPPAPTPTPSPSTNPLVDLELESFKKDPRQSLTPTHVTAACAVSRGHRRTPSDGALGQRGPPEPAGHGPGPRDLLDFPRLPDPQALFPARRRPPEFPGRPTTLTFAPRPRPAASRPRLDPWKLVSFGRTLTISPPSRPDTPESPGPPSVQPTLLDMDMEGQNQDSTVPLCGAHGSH
# [14] = target: T4, Muscarinic acetylcholine receptor M2 (Homo sapiens) (UniProt P08172); assay: Selectivity interaction (Panel of kinases, GPCRs, ion channels and transporters (enzymatic assay)) EUB0000266bCl CHRM2
# T4 sequence (whole entry): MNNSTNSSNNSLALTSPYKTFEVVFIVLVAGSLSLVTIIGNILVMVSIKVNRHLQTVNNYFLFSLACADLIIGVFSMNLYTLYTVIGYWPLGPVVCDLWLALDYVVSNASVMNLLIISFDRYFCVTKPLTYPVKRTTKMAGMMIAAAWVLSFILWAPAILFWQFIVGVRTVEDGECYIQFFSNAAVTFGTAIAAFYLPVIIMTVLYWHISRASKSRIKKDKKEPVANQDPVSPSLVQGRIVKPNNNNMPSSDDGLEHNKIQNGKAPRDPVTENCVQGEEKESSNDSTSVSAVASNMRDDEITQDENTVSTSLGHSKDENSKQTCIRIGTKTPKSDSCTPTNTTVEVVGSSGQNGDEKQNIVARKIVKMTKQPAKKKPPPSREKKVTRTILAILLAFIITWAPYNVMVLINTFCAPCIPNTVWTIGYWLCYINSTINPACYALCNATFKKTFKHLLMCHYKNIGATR
# [15] = target: Tyrosine-protein kinase Fgr (Homo sapiens) (UniProt P09769); assay: Selectivity interaction (KinomeScan (DiscoverX)) EUB0000092b FGR; conditions: at 10 µM
# Tyrosine-protein kinase Fgr (Homo sapiens), sequence (P09769 2-529 limits assumed): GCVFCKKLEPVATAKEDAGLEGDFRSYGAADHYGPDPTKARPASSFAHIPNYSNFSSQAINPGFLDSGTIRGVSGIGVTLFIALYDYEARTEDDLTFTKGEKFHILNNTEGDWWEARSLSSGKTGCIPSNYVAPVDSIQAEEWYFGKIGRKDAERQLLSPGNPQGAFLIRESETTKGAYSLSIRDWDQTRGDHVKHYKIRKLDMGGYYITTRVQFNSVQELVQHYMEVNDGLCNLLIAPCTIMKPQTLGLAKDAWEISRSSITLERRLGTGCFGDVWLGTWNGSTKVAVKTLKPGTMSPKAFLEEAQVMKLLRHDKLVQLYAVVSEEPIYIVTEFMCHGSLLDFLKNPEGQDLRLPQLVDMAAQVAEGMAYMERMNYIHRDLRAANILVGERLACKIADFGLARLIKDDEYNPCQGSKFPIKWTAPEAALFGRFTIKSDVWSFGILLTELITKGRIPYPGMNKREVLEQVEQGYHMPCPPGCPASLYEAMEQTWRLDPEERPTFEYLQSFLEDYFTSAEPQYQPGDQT
# Serine/threonine-protein kinase 32A (Homo sapiens), sequence (Q8WU08 whole entry): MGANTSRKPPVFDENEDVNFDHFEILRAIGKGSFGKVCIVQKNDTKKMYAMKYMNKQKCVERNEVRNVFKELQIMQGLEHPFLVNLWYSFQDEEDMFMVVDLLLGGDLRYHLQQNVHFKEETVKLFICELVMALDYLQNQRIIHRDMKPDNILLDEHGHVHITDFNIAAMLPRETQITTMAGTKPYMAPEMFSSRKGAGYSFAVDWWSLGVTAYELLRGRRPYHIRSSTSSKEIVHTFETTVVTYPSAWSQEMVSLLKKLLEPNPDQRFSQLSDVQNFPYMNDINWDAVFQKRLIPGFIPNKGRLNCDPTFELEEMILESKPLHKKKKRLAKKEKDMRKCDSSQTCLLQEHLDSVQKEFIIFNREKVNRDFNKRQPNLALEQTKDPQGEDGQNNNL
smiles,measurement,setting,value
COCC(=O)NC/C=C/c1ccc2ncnc(Nc3ccc(Oc4ccc(C)nc4)c(C)c3)c2c1 [CP-724714],% of control,[1],100%
CNCCN1CCC(c2cc(CN(C)C(=O)c3cccc(Oc4ccccc4)c3)ccn2)CC1,% activity,[2],> 90%
O=C(NOC[C@H](O)CO)c1ccc(F)c(F)c1Nc1ccc(I)cc1F,% of control,[3],100%
Cc1cnc(Nc2ccc(F)cc2Cl)nc1-c1c[nH]c(C(=O)N[C@H](CO)c2cccc(Cl)c2)c1,% of inhibition,[4],5%
COc1cc(Nc2nc(C)cc(-c3cnn4nc(OC)ccc34)n2)cc(C(F)(F)F)c1,% of control,[5],91%
same,% of control,[6],98%
CCC(=O)N1CC[C@H](Nc2ncnc3c2CN(c2cnc(OC)c(C(F)(F)F)c2)CC3)C1 [LENIOLISIB],IC50,[7],99 nM
C=CC(=O)Nc1cccc(C(=O)Nc2ccc(Nc3cc(-c4[nH]c(SC)nc4C)ccn3)cc2)c1,% of control,[8],101%
same,% of control,[9]; at 1 µM,79%
same,% of control,[9]; at 5 µM,54%
same,% of control,[10]; at 1 µM,23%
same,% of control,[10]; at 5 µM,6%
same,% of control,[11]; at 1 µM,99%
same,% of control,[11]; at 5 µM,81%
Cn1cc(Nc2nccc(N3CC4CCC(C3)N4C(=O)[C@@H]3CC3(F)F)n2)cn1,IC50,[12],> 30000 nM
N#Cc1cccc(-c2c[nH]c3ncnc(N4CCOCC4)c23)c1,% of control,[13],100%
CCn1c(-c2nc3cc(C(=O)N4CCCC(N)C4)ccc3n2C)cc2ccccc21 (stereo not drawn),pXC50,[14],< 4.8 M
CCC(=O)N1CCN(c2ccc(-n3c(=O)ccc4cnc5ccc(-c6cnc7ccccc7c6)cc5c43)cc2C(F)(F)F)CC1,% of control,[15],78%
